Laboratory results as given in patent US10723733B2, “Hepatitis B antiviral agents” (Enanta Pharmaceuticals, Inc., priority 2017, dated 2020).

The compounds below were run on HBV (assay: HepAD38 antiviral assay: reduction of viral product accumulation (virion DNA by qPCR, HBsAg/HBeAg by ELISA)). Details: Hepatitis B virus, 120 h; HepAD38 cells; 50% reduction of viral product accumulation vs no drug controls; five days after compound addition; class symbols.
Assay type: cell-based
Description: Methods: HepAD38 cells are maintained as previously reported (Ladner et al, Antimicrob. Agents Chemother. 1997, […], 1715). Briefly, cells are passaged upon attaining confluency in DMEM/F12 media in the presence of 10% FBS, Penn/Strep, 250 μg/mL G418, and 1 μg/ml tetracycline. Novel compounds are screened by first washing cells three times with PBS to remove tetracycline, and plating in 96 well plates at 35,000 cells/well. Compounds dissolved in DMSO are then diluted 1:200 into wells containing cells. Five days after compound addition, material is harvested for analysis. For an extended 8 day analysis, cells are plated and treated as described above, but media and compound are refreshed on d2 and d5 post initial treatment.
On harvest day, virion DNA is obtained by lysing with Sidestep Lysis and Stabilization Buffer and then quantified via quantitative real time PCR. Commercially available ELISA kits are used to quantitate the viral proteins HBsAg (Alpco) or HbeAg (US Biological) by following the manufacturer's recommended protocol after diluting samples to match the linear range of their respective assays. Irrespective of readout, compound concentrations that reduce viral product accumulation in the cell lysates or supernatants by 50% relative to no drug controls (EC50) are reported; EC50 ranges are as follows: A<0.1 μM; B 0.1-1 μM; C>1 μM.
For `COC(=O)N[C@H]1CC2=C(c3cnn(C(F)F)c3)[C@H](c3ccc(F)cc3Cl)N=C(c3nccs3)N2C1` [Example 14], the EC50 was under 100 nM.
Work on `O=C[C@]1(CC2=C(c3ccn(C(F)F)n3)[C@H](c3ccc(F)cc3Cl)N=C(c3nccs3)N2)COC(=O)N1` [Example 95] yielded an EC50 of under 100 nM.
In the case of `CCS(=O)(=O)N[C@H]1CC2=C(c3cnn(C(F)F)c3)[C@H](c3ccc(F)cc3Cl)N=C(c3nccs3)N2C1` [Example 21], the EC50 is reported as under 100 nM.
Work on `COCC(F)(COC)CC1=C(c2cnn(C(F)F)c2)[C@H](c2ccc(F)cc2Cl)N=C(c2nccs2)N1` [Example 138] yielded an EC50 of 100 to 1000 nM.
Compound `OC[C@]1(F)CC2=C(c3cnn(C(F)F)c3)[C@H](c3ccc(F)cc3Cl)N=C(c3nccs3)N2C1` [Example 148] has an EC50 of 100 to 1000 nM.
`[N-]=[N+]=NC[C@]1(O)CC2=C(c3ccn(C(F)F)n3)[C@H](c3ccc(F)cc3Cl)N=C(c3nccs3)N2C1` [Example 114] gave an EC50 of 100 to 1000 nM.
Compound `CCCS(=O)(=O)N[C@H]1CC2=C(c3cnn(C(F)F)c3)[C@H](c3ccc(F)cc3Cl)N=C(c3nccs3)N2C1` [Example 22] has an EC50 of under 100 nM.
`CS(=O)(=O)OC[C@@]1(N=[N+]=[N-])CC2=C(c3cnn(C(F)F)c3)[C@H](c3ccc(F)cc3Cl)N=C(c3nccs3)N2C1` [Example 51] gave an EC50 of 100 to 1000 nM.
With `OC[C@@]1(F)CC2=C(c3cnn(C(F)F)c3)[C@H](c3ccc(F)cc3Cl)N=C(c3nccs3)N2C1` [Example 149] the EC50 was 100 to 1000 nM.
With `O=C1N[C@@](/C=N/Oc2ccccc2)(CC2=C(c3ccn(C(F)F)n3)[C@H](c3ccc(F)cc3Cl)N=C(c3nccs3)N2)CO1` [Example 102] the EC50 was 100 to 1000 nM.
`OC1CCCCC1CC1=C(c2cnn(C(F)F)c2)[C@H](c2ccc(F)cc2Cl)N=C(c2nccs2)N1` (stereo partly drawn) [Example 46] showed an EC50 of 100 to 1000 nM.
For `CC(C)n1cc(C2=C3C[C@H](NS(=O)(=O)C4CC4)CN3C(c3nccs3)=N[C@H]2c2ccc(F)cc2Cl)cn1` [Example 5], the EC50 was under 100 nM.
Compound `O=S(=O)(N[C@H]1CC2=C(c3cnn(C(F)F)c3)[C@H](c3ccc(F)cc3Cl)N=C(c3nccs3)N2C1)N1CCCC1` [Example 19] has an EC50 of under 100 nM.
`COC(=O)OC[C@@]1(N=[N+]=[N-])CC2=C(c3cnn(C(F)F)c3)[C@H](c3ccc(F)cc3Cl)N=C(c3nccs3)N2C1` [Example 55] showed an EC50 of under 100 nM.
In the case of `COC(=O)OC[C@]1(CC2=C(c3ccn(C(F)F)n3)[C@H](c3ccc(F)cc3Cl)N=C(c3nccs3)N2)COC(=O)N1` [Example 96], the EC50 is reported as 100 to 1000 nM.
In the case of `OCC(F)(CO)CC1=C(c2cnn(C(F)F)c2)[C@H](c2ccc(F)cc2Cl)N=C(c2nccs2)N1` [Example 137], the EC50 is reported as 100 to 1000 nM.
With `CC(=O)OC[C@@]1(N=[N+]=[N-])CC2=C(c3cnn(C(F)F)c3)[C@H](c3ccc(F)cc3Cl)N=C(c3nccs3)N2C1` [Example 59] the EC50 was under 100 nM.

Same assay, conditions: Hepatitis B virus, 120 h; HepAD38 cells; 50% reduction of viral product accumulation vs no drug controls; five days after compound addition; given as numeric bound
For `COC(=O)N[C@]1(COC(C)=O)CC2=C(c3ccn(C(F)F)n3)[C@H](c3ccc(F)cc3Cl)N=C(c3nccs3)N2C1` [Example 83], the EC50 was over 400 nM.
`CC(C)(O)[C@]1(CC2=C(c3ccn(C(F)F)n3)[C@H](c3ccc(F)cc3Cl)N=C(c3nccs3)N2)COC(=O)N1` [Example 109] showed an EC50 of over 400 nM.
`COC(=O)[C@](N)(CO)CC1=C(c2ccn(C(F)F)n2)[C@H](c2ccc(F)cc2Cl)N=C(c2nccs2)N1` [Example 62] was tested, and the EC50 was over 400 nM.
In the case of `CS(=O)(=O)OC[C@]1(F)CC2=C(c3cnn(C(F)F)c3)[C@H](c3ccc(F)cc3Cl)N=C(c3nccs3)N2C1` [Example 34], the EC50 is reported as over 400 nM.
For `C=CCOC[C@]1(CC2=C(c3ccn(C(F)F)n3)[C@H](c3ccc(F)cc3Cl)N=C(c3nccs3)N2)COC(=O)N1` [Example 100], the EC50 was over 400 nM.
`CC1(CNS(C)(=O)=O)CC2=C(c3cnn(C(F)F)c3)[C@H](c3ccc(F)cc3Cl)N=C(c3nccs3)N2C1` (stereo partly drawn) [Example 38] was tested, and the EC50 was over 400 nM.
`CC(=O)OC[C@]1(N=[N+]=[N-])CC2=C(c3cnn(C(F)F)c3)[C@H](c3ccc(F)cc3Cl)N=C(c3nccs3)N2C1` [Example 58] was tested, and the EC50 was over 400 nM.
Work on `CC(=O)NCC1CC2=C(c3cnn(C(F)F)c3)[C@H](c3ccc(F)cc3Cl)N=C(c3nccs3)N2C1` (stereo partly drawn) [Example 29] yielded an EC50 of over 100 nM.
With `CS(=O)(=O)NC(=O)N[C@H]1CC2=C(c3cnn(C(F)F)c3)[C@H](c3ccc(F)cc3Cl)N=C(c3nccs3)N2C1` [Example 15] the EC50 was over 100 nM.
For `COC(=O)[C@@]1(O)CC2=C(c3ccn(C(F)F)n3)[C@H](c3ccc(F)cc3Cl)N=C(c3nccs3)N2C1` [Example 120], the EC50 was over 400 nM.
`CS(=O)(=O)NCC1CC2=C(c3cnn(C(F)F)c3)[C@H](c3ccc(F)cc3Cl)N=C(c3nccs3)N2C1` (stereo partly drawn) [Example 30] gave an EC50 of over 100 nM.
For `CC(C)(C)OC(=O)NC[C@H]1CN(CC2=C(c3ccn(C(F)F)n3)[C@H](c3ccc(F)cc3Cl)N=C(c3nccs3)N2)C(=O)O1` [Example 124], the EC50 was over 400 nM.
`OCC(CO)CC1=C(c2cnn(C(F)F)c2)[C@H](c2ccc(F)cc2Cl)N=C(c2nccs2)N1` [Example 26] showed an EC50 of over 100 nM.
`CC(O)[C@]1(CC2=C(c3ccn(C(F)F)n3)[C@H](c3ccc(F)cc3Cl)N=C(c3nccs3)N2)COC(=O)N1` (stereo partly drawn) [Example 110] was tested, and the EC50 was over 400 nM.
In the case of `COC(=O)[C@]1(O)CC2=C(c3ccn(C(F)F)n3)[C@H](c3ccc(F)cc3Cl)N=C(c3nccs3)N2C1` [Example 121], the EC50 is reported as over 400 nM.
In the case of `COC(=O)N[C@@]1(C(C)O)CC2=C(c3ccn(C(F)F)n3)[C@H](c3ccc(F)cc3Cl)N=C(c3nccs3)N2C1` (stereo partly drawn) [Example 87], the EC50 is reported as over 400 nM.
Compound `CS(=O)(=O)OCC1CC2=C(c3cnn(C(F)F)c3)[C@H](c3ccc(F)cc3Cl)N=C(c3nccs3)N2C1` (stereo partly drawn) [Example 28] has an EC50 of over 100 nM.
With `CN(C)C(=O)NCC1(C)CC2=C(c3cnn(C(F)F)c3)[C@H](c3ccc(F)cc3Cl)N=C(c3nccs3)N2C1` (stereo partly drawn) [Example 42] the EC50 was over 400 nM.
Work on `CCC[C@H]1OC[C@](F)(CC2=C(c3cnn(C(F)F)c3)[C@H](c3ccc(F)cc3Cl)N=C(c3nccs3)N2)CO1` [Example 141] yielded an EC50 of over 400 nM.
`COC(=O)NC[C@@H]1CCC(=O)N1CC1=C(c2ccn(C(F)F)n2)[C@H](c2ccc(F)cc2Cl)N=C(c2nccs2)N1` [Example 133] was tested, and the EC50 was over 400 nM.
`O=C1N[C@](CO)(CC2=C(c3ccn(C(F)F)n3)[C@H](c3ccc(F)cc3Cl)N=C(c3nccs3)N2)CO1` [Example 90] showed an EC50 of over 400 nM.
`COC(=O)[C@](CO)(CC1=C(c2ccn(C(F)F)n2)[C@H](c2ccc(F)cc2Cl)N=C(c2nccs2)N1)NC(=O)OC(C)(C)C` [Example 63] was tested, and the EC50 was over 400 nM.
`COC(=O)[C@@]1(NS(C)(=O)=O)CC2=C(c3ccn(C(F)F)n3)[C@H](c3ccc(F)cc3Cl)N=C(c3nccs3)N2C1` [Example 67] showed an EC50 of over 400 nM.
In the case of `OCC(F)(F)CC1=C(c2cnn(C(F)F)c2)[C@H](c2ccc(F)cc2Cl)N=C(c2nccs2)N1` [Example 147], the EC50 is reported as over 400 nM.
Compound `COC(=O)N[C@]1(C(=O)NCCC(=O)OC(C)(C)C)CC2=C(c3ccn(C(F)F)n3)[C@H](c3ccc(F)cc3Cl)N=C(c3nccs3)N2C1` [Example 80] has an EC50 of over 400 nM.
With `CC(C)(C)OC(=O)NC[C@H]1CCC(=O)N1CC1=C(c2ccn(C(F)F)n2)[C@H](c2ccc(F)cc2Cl)N=C(c2nccs2)N1` [Example 130] the EC50 was over 400 nM.
Compound `C=CC[C@@]1(COS(C)(=O)=O)CC2=C(c3cnn(C(F)F)c3)[C@H](c3ccc(F)cc3Cl)N=C(c3nccs3)N2C1` [Example 40] has an EC50 of over 400 nM.
Compound `C[C@]1(CN=[N+]=[N-])CC2=C(c3cnn(C(F)F)c3)[C@H](c3ccc(F)cc3Cl)N=C(c3nccs3)N2C1` [Example 36] has an EC50 of over 400 nM.
With `COC(=O)NC[C@H]1CCC(=O)N1CC1=C(c2ccn(C(F)F)n2)[C@H](c2ccc(F)cc2Cl)N=C(c2nccs2)N1` [Example 132] the EC50 was over 400 nM.
Compound `O=S(=O)(CC1=C(c2cnn(C(F)F)c2)[C@H](c2ccc(F)cc2Cl)N=C(c2nccs2)N1)C1CCCC1` [Example 145] has an EC50 of over 400 nM.
`COC(=O)[C@]1(N)CC2=C(c3ccn(C(F)F)n3)[C@H](c3ccc(F)cc3Cl)N=C(c3nccs3)N2C1` [Example 75] was tested, and the EC50 was over 400 nM.
For `COC(=O)N[C@]1(C(C)O)CC2=C(c3ccn(C(F)F)n3)[C@H](c3ccc(F)cc3Cl)N=C(c3nccs3)N2C1` (stereo partly drawn) [Example 119], the EC50 was over 400 nM.
Work on `Fc1ccc([C@@H]2N=C(c3nccs3)NC(C[C@]3(F)CO[C@@H](c4ccccc4)OC3)=C2c2cnn(C(F)F)c2)c(Cl)c1` [Example 143] yielded an EC50 of over 400 nM.
`O=S(=O)(CC1=C(c2cnn(C(F)F)c2)[C@H](c2ccc(F)cc2Cl)N=C(c2nccs2)N1)N1CCC(O)CC1` [Example 146] showed an EC50 of over 400 nM.
`CNC(=O)OC[C@]1(CC2=C(c3ccn(C(F)F)n3)[C@H](c3ccc(F)cc3Cl)N=C(c3nccs3)N2)COC(=O)N1` [Example 98] showed an EC50 of over 400 nM.
For `CCC[C@H]1OC[C@@](F)(CC2=C(c3cnn(C(F)F)c3)[C@H](c3ccc(F)cc3Cl)N=C(c3nccs3)N2)CO1` [Example 142], the EC50 was over 400 nM.
`COC(=O)[C@@](N)(CO)CC1=C(c2ccn(C(F)F)n2)[C@H](c2ccc(F)cc2Cl)N=C(c2nccs2)N1` [Example 92] showed an EC50 of over 400 nM.
In the case of `CCOC(=O)NC[C@@H]1CCC(=O)N1CC1=C(c2ccn(C(F)F)n2)[C@H](c2ccc(F)cc2Cl)N=C(c2nccs2)N1` [Example 135], the EC50 is reported as over 400 nM.
With `CNC(=O)OC[C@@]1(NC(=O)OC)CC2=C(c3ccn(C(F)F)n3)[C@H](c3ccc(F)cc3Cl)N=C(c3nccs3)N2C1` [Example 71] the EC50 was over 400 nM.
For `COC(=O)N[C@]1(COC(=O)NCCC(=O)O)CC2=C(c3ccn(C(F)F)n3)[C@H](c3ccc(F)cc3Cl)N=C(c3nccs3)N2C1` [Example 79], the EC50 was over 400 nM.
